We go through one compound from patent publication US20260167541A1, “BIOCIDAL CONTROL IN AQUEOUS MEMBRANE SEPARATION SYSTEMS” (Albemarle Corporation, priority 2023, published 2026).

One assay has as its system microbes in water. Put plainly: Biocide efficacy on microbes in water (planktonic biocidal reduction, marsh water). The format is cell-based. The method, then: (§1) Marsh water was fed into a storage tank via a 1200-foot long (365 m) hose. A biocide was added to the hose at a point 20 feet (6.1 m) before the hose connection to the storage tank. Water was fed from the storage tank to a reverse osmosis (RO) system equipped with an ultrafiltration (UF) membrane upstream of an RO membrane. In this system, the UF membrane was a non-protected membrane and the RO membrane was a protected membrane. An oxidation-reduction potential (ORP) electrode was in the water at a point upstream of and near the RO membrane, and the ORP electrode was connected to an ORP controller unit (ORP electrode: RD2, Hach Company). Measurements from the ORP were monitored, and the reducing agent was pumped into the RO system downstream of the ORP electrode as needed as indicated by the ORP reading from the ORP electrode.
The biocides tested were bleach, 1,3-dibromo-5,5-dimethylhydantoin (Br2DMH; Albemarle Corporation), and an aqueous solution formed from bromine chloride and sulfamic acid containing over 50,000 ppm of active halogen having a pH in the range of 13 to 14 (BrCl/sulfamic acid; STABROM® 909 biocide, Albemarle Corporation). The reducing agent used with each biocide was […].
The water was sampled at various times upstream of and near the UF membrane, and the water was also sampled at various times upstream of and near the RO membrane. The duration of testing for each biocide was approximately 30 days. Functionality of the RO membrane, types of microbes at RO membrane after treatment, biocide efficacy on microbes in water, and biocide efficacy for biofilm growth were determined.
For the data in Table 3, the water was sampled upstream of and near the UF membrane, and upstream of and near the RO membrane The data in Table 3 are an average of samples from several days for planktonic biocidal reduction.

Another assay relates to biofilm. Put plainly: Biofilm coupon test with modified Robbins device (ATP, RLU). It is filed as cell-based, bacteria. The following applies: water upstream of and near the RO membrane; average of 3 or 4 coupons. The method, then:
as §1, with “electrode. […]” for “electrode.”
(§2) The water was sampled at various times upstream of and near the UF membrane, and the water was also sampled at various times upstream of and near the RO membrane. […] Functionality of the RO membrane, types of microbes at RO membrane after treatment, biocide efficacy on microbes in water, and biocide efficacy for biofilm growth were determined. […]

The next assay concerns Aerobic bacteria. Put plainly: Types of microbes at RO membrane after treatment (membrane autopsy): aerobic bacteria. The note with it: on RO membrane after 30 days of exposure to the biocide. The format is cell-based. The method, then: as §1, with “electrode. […]” for “electrode.”
as §2

The subject of the next assay is Yeast/mold. The assay is described as follows: Types of microbes at RO membrane after treatment (membrane autopsy): yeast/mold. The note with it: on RO membrane after 30 days of exposure to the biocide. It is filed as cell-based. The method, then: as §1, with “electrode. […]” for “electrode.”
as §2

[1] abbreviates: untreated water to RO feed water.

Take `CC1(C)C(=O)N(Br)C(=O)N1Br` [Br2DMH, 1,3-dibromo-5,5-dimethylhydantoin]: in the assay with microbes in water (setting [1]), the “Log reduction, total (untreated to RO)” value is 2.1 and the “Reduction, total (untreated to RO)” value came to 99.2%. In addition, in the assay with microbes in water (water sampled upstream of and near the RO membrane, average of samples from several days), the RO feed water is reported as 2.2 log cfu/mL. The compound also showed a UF feed water in the assay with microbes in water (water sampled upstream of and near the UF membrane, average of samples from several days) of 3.1 log cfu/mL. In addition, the “ATP on Polyamide coupon” value in the assay on biofilm came to 5825 RLU. Also, the Aerobic bacteria rating entry in the assay on Aerobic bacteria is “High (10,000 to 1,000,000)”. Besides, the Yeast/mold rating entry in the assay with Yeast/mold is “Low (0 to 100)”.
